Laboratory results published in patent publication US5232684A, “Labelled resiniferatoxin, compositions thereof, and methods for using the same” (priority 1990, dated 1993).

Assays:
[1] = test system: capsaicin receptor (sheep DRG); assay: [^3H]RTX binding to sheep DRG membranes; conditions: DRG from sheep
rat cerebellum = assay: [^3H]RTX binding to rat cerebellum
CD-1 mice = assay: Induction of hypothermia in CD-1 mice; type: in vivo, mouse; conditions: 10^-5 g/kg s.c.
Source text: [^3 H]RTX (37 Ci/mmol) is synthesized by esterification of resiniferonol 9,13,14-orthophenylacetate (Chemicals for Cancer Research, Inc., Chaska, MN) at the C20 position with [^3 H]homovanillic acid (Chemical Synthesis and Analysis Laboratory, NCI-FCRF, Frederick, MD). The labelled compound is purified on HPLC and cochromatographed with authentic RTX (Chemicals for Cancer Research, Inc., Chaska, MN). The biological activity of [^3 H]RTX is confirmed in 2 assays: induction of hypothermia in CD-1 mice (10^-5 g/kg s.c.) and induction of ear edema in Sprague-Dawley rats (2×10^-7 g/ear).

[2] = target: T1, capsaicin receptor (rat DRG) (Rattus norvegicus, UniProt O35433); assay: RTX binding in DRG preparations after in vivo RTX treatment
T1 construct: homotetramer

[3] = test system: rat brain preoptic region; assay: [^3H]RTX binding to rat brain preoptic region

T1 sequence (O35433 whole entry): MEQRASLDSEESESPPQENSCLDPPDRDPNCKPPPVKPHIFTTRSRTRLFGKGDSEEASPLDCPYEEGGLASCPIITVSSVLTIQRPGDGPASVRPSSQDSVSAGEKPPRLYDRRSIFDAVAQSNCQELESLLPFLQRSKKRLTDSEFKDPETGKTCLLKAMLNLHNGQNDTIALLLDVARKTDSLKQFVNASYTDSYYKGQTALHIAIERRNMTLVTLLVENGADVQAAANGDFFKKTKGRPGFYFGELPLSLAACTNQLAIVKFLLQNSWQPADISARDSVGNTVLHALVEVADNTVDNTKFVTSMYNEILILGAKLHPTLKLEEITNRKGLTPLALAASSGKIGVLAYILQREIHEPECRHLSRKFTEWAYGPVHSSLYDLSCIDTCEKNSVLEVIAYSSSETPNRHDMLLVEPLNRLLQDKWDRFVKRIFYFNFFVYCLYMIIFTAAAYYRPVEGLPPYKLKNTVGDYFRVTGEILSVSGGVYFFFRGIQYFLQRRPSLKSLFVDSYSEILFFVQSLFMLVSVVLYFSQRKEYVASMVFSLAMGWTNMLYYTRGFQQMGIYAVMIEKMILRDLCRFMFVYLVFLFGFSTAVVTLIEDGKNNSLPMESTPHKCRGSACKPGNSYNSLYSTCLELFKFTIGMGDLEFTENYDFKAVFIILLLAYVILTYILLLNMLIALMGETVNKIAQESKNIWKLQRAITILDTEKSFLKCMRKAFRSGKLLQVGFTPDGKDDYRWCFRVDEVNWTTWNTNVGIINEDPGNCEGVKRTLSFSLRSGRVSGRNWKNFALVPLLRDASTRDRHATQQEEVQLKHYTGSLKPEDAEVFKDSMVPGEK

## C=C(C)[C@]12C[C@@H](C)[C@@]34O[C@](Cc5ccccc5)(O[C@@H]1[C@@H]3C=C(COC(=O)Cc1ccc(O)c(OC)c1)C[C@]1(O)C(=O)C(C)=C[C@@H]41)O2 [[^3 H]RTX, [^3 H]resiniferatoxin]
[1]
  specific binding: Specific binding is observed
Rat cerebellum
  specific binding: no specific binding
CD-1 mice
  biological activity: induction of hypothermia: confirmed
[2]
  [^3H]RTX binding sites in neonatally treated animals: very significant loss
[3]
  detection of [^3H]RTX binding: very difficult
